According to paper PMC3532212 (PLoS ONE, 2012):

Legend:
[1] = Plasma concentrations during escalating i.v. infusion in anesthetized rats; format: in vivo; details: male, Sprague Dawley, plasma, iv, anesthetized rat, FTY720 i.v.
Protocol: The cardiovascular effects of FTY720 and BAF312 were tested in anesthetized rats (180–200 g). In brief, male Sprague Dawley rats (Charles River) were anesthetized with Inactin (110 mg/kg i.p.) and a tracheotomy performed. The femoral artery and veins were catheterized for measurement of mean arterial pressure and heart rate, collection of blood samples at 20-min intervals (0.2 mL/sample), and for compound infusion/hydration as previously described, [24]; blood samples were also withdrawn in vehicle-treated control rats. FTY720, infused as a hydrochloride salt (0.1, 0.3, 1.0 mg/kg/20-min free base equivalent solubilized in a 100% PEG-400 vehicle), or BAF312 (0.5, 1.5, 5.0 mg/kg/20-min solubilized in a 100% PEG-400 vehicle) were administered via three escalating 20-min infusions (0.011 mL/min) followed by a 1-hr post-treatment period. A blood sample was withdrawn at 20, 40, 60, and 120-minutes for analysis of plasma concentrations of the parent compound, and in the case of FTY720, also the phosphorylated metabolite, (S)-FTY720-P. Statistical significance (p<0.05) was based on a t-test comparing treatment change from baseline (baseline was defined as the period from −30 to 0 minutes) vs. vehicle controls change from baseline at each timepoint without adjustment for multiple comparisons. In a separate group of anesthetized rats in which left ventricular (LV) contractility was also recorded with a Millar pressure transducer introduced into the left ventricle, BAF312 was infused in the same dosing regimen as the studies described above (0.5, 1.5, 5.0 mg/kg/20-min solubilized in a 100% PEG-400 vehicle) and effects on LV dP/dtmax were recorded.

[2] = system: conscious, telemetry-instrumented rats; experiment: Telemetry-instrumented conscious rats, single oral dose hemodynamics; format: in vivo; details: conscious rat; for mean arterial pressure above baseline, 24-hr mean: vehicle 3.6±1.5
Protocol: (§1) Mean arterial pressure was assessed in conscious, freely moving male Sprague Dawley rats (n = 6–8/group; Charles River) instrumented with telemetry transmitters (DSI-Ponemah) and housed in metabolism cages as previously described, [26]. Tested compounds were solubilized in a 0.5% Methylcellulose/0.015% Tween 80 vehicle that was also dosed alone (p.o./QD, 5 mL/kg) as a control in the study. FTY720 was administered p.o. at 0.3, 1.0, 3.0, 10.0 mg/kg p.o. as a single dose or p.o./QD at 0.5, 1.5, and 5.0 mg/kg in a chronic study. BAF312 was administered p.o/QD at 0.3, 3.0, and 30 mg/kg as a single dose and in a chronic study. Mean arterial pressure and heart rate are shown as 1-hr and/or 24-hr mean values±SEM as described in the results. Blood samples in satellite rats were withdrawn at various timepoints as described in the results for analysis of plasma concentrations of the parent compound and, in the case of FTY720, also the phosphorylated metabolite, (S)-FTY720-P. Statistical analysis for the single-dose acute studies was based on one-way ANOVA to compare the treatment groups vs. vehicle for each time period after dosing (0–24 hrs, 24–48 hrs, and 48–72 hrs); statistical significance (p<0.05) was detected by Dunnett’s post-hoc test to compare treatment with vehicle controls. The statistical analysis in the chronic studies were based on one-way ANOVA with repeated measures to compare the treatment arms; statistical significance (p<0.05) was detected by Dunnett’s post-hoc test to compare treatment with vehicle controls.

[3] = Plasma concentrations in repeat-dosing study, satellite rats; format: in vivo, rat; details: for concentration at 0 h / concentration at 4 h / concentration at 8 h / concentration at 24 h: male, Sprague Dawley, rat, plasma, po, mean±SEM; for Plasma concentration at Tmax / Terminal plasma concentration at Tmax: satellite rats; for Plasma concentration at Tmax: day 1; for Terminal plasma concentration at Tmax: last day of study
Protocol: as §1

[4] = system: mouse and rat experimental autoimmune encephalitis, EAE; design: method as in PMID 23436932; details: correlated with reduced circulating lymphocytes and monocytes; cited from earlier work

For `CCCCCCCCc1ccc(CCC(N)(CO)CO)cc1` [FTY720], which concentration at 20 min ([1]; end of 0.1 mg/kg/20 min infusion) is on record?
Its concentration at 20 min is 54 ± 9 nM.

And the concentration at 40 min ([1]; end of 0.3 mg/kg/20 min infusion)?
Its concentration at 40 min is 198 ± 13 nM.

What about the concentration at 60 min ([1]; end of 1.0 mg/kg/20 min infusion) of the same compound?
Its concentration at 60 min is 375 ± 46 nM.

What about the concentration at 120 min ([1]; end of 60-min post-treatment period) of the same compound?
Its concentration at 120 min is 121 ± 5 nM.

And the “mean arterial pressure above baseline, 24-hr mean” value ([2]; FTY720 3 mg/kg single oral dose, day 1)?
Its value is 13.5±1.8 mmHg.

What about the “mean arterial pressure above baseline, 24-hr mean” value ([2]; FTY720 10 mg/kg single oral dose, day 1) of the same compound?
Its value is 19.9±2.8 mmHg.

And the “heart rate change from baseline, 24-hr mean” value ([2]; FTY720 10 mg/kg single oral dose, day 1, vehicle 15±3)?
The value was −13±6 beats/min.

And the “changes in heart rate vs vehicle after day 1” value ([2]; FTY720 single oral dose, after day 1 up to 72 hours)?
The value was “not different from vehicle control rats”.

And the concentration at 0 h ([3]; 0.5 mg/kg/day, FTY720 0.5 mg/kg/d p.o., Terminal (last day))?
The concentration at 0 h was 18 ± 2 nM.

What about the concentration at 4 h ([3]; 0.5 mg/kg/day, FTY720 0.5 mg/kg/d p.o., Terminal (last day), 4 hr post-dose) of the same compound?
Its concentration at 4 h is 24 ± 3 nM.

And the concentration at 8 h ([3]; 0.5 mg/kg/day, FTY720 0.5 mg/kg/d p.o., Terminal (last day), 8 hr post-dose)?
The concentration at 8 h was 63 ± 37 nM.

What about the concentration at 24 h ([3]; 0.5 mg/kg/day, FTY720 0.5 mg/kg/d p.o., Terminal (last day), 24 hr post-dose) of the same compound?
The concentration at 24 h was 40 ± 27 nM.

And the concentration at 4 h ([3]; 0.5 mg/kg/day, FTY720 0.5 mg/kg/d p.o., Day 1, 4 hr post-dose)?
Its concentration at 4 h is 9 ± 1 nM.

What about the concentration at 8 h ([3]; 0.5 mg/kg/day, FTY720 0.5 mg/kg/d p.o., Day 1, 8 hr post-dose) of the same compound?
Its concentration at 8 h is 13 ± 2 nM.

What about the concentration at 24 h ([3]; 0.5 mg/kg/day, FTY720 0.5 mg/kg/d p.o., Day 1, 24 hr post-dose) of the same compound?
Its concentration at 24 h is 8 ± 1 nM.

And the concentration at 0 h ([3]; 1.5 mg/kg/day, FTY720 1.5 mg/kg/d p.o., Terminal (last day))?
The concentration at 0 h was 58 ± 7 nM.

And the concentration at 4 h ([3]; 1.5 mg/kg/day, FTY720 1.5 mg/kg/d p.o., Terminal (last day), 4 hr post-dose)?
The concentration at 4 h was 60 ± 6 nM.

What about the concentration at 8 h ([3]; 1.5 mg/kg/day, FTY720 1.5 mg/kg/d p.o., Terminal (last day), 8 hr post-dose) of the same compound?
Its concentration at 8 h is 81 ± 4 nM.

And the concentration at 24 h ([3]; 1.5 mg/kg/day, FTY720 1.5 mg/kg/d p.o., Terminal (last day), 24 hr post-dose)?
The concentration at 24 h was 44 ± 5 nM.

And the concentration at 4 h ([3]; 1.5 mg/kg/day, FTY720 1.5 mg/kg/d p.o., Day 1, 4 hr post-dose)?
The concentration at 4 h was 45 ± 4 nM.

And the concentration at 8 h ([3]; 1.5 mg/kg/day, FTY720 1.5 mg/kg/d p.o., Day 1, 8 hr post-dose)?
Its concentration at 8 h is 53 ± 9 nM.

And the concentration at 24 h ([3]; 1.5 mg/kg/day, FTY720 1.5 mg/kg/d p.o., Day 1, 24 hr post-dose)?
Its concentration at 24 h is 34 ± 4 nM.

And the concentration at 0 h ([3]; 5 mg/kg/day, FTY720 5.0 mg/kg/d p.o., Terminal (last day))?
The concentration at 0 h was 207 ± 27 nM.

What about the concentration at 4 h ([3]; 5 mg/kg/day, FTY720 5.0 mg/kg/d p.o., Terminal (last day), 4 hr post-dose) of the same compound?
The concentration at 4 h was 229 ± 21 nM.

What about the concentration at 8 h ([3]; 5 mg/kg/day, FTY720 5.0 mg/kg/d p.o., Terminal (last day), 8 hr post-dose) of the same compound?
Its concentration at 8 h is 176 ± 37 nM.

What about the concentration at 24 h ([3]; 5 mg/kg/day, FTY720 5.0 mg/kg/d p.o., Terminal (last day), 24 hr post-dose) of the same compound?
Its concentration at 24 h is 134 ± 21 nM.

And the concentration at 4 h ([3]; 5 mg/kg/day, FTY720 5.0 mg/kg/d p.o., Day 1, 4 hr post-dose)?
Its concentration at 4 h is 98 ± 14 nM.

And the concentration at 8 h ([3]; 5 mg/kg/day, FTY720 5.0 mg/kg/d p.o., Day 1, 8 hr post-dose)?
Its concentration at 8 h is 102 ± 4 nM.

What about the concentration at 24 h ([3]; 5 mg/kg/day, FTY720 5.0 mg/kg/d p.o., Day 1, 24 hr post-dose) of the same compound?
The concentration at 24 h was 17 ± 40 nM.

What about the “Plasma concentration at Tmax” value ([3]; FTY720 0.5 mg/kg/d p.o.) of the same compound?
The value was 13 ± 2 nM.

What about the “Terminal plasma concentration at Tmax” value ([3]; FTY720 0.5 mg/kg/d p.o.) of the same compound?
The value was 63 ± 37 nM.

What about the “Plasma concentration at Tmax” value ([3]; FTY720 1.5 mg/kg/d p.o.) of the same compound?
Its value is 53 ± 9 nM.

And the “Terminal plasma concentration at Tmax” value ([3]; FTY720 1.5 mg/kg/d p.o.)?
The value was 81 ± 4 nM.

And the “Plasma concentration at Tmax” value ([3]; FTY720 5.0 mg/kg/d p.o.)?
The value was 120 ± 17 nM.

What about the “Terminal plasma concentration at Tmax” value ([3]; FTY720 5.0 mg/kg/d p.o.) of the same compound?
Its value is 229 ± 21 nM.

What about the “efficacious dose in EAE” value [4] of the same compound?
Its value is 0.3 mg/kg.
